Consider 2 molecules from ChEMBL document CHEMBL4706739, “Novel Heterobicyclic Carboxamides for Treating Eye Diseases” (ACS Med Chem Lett, 2021).

The structures appear in SMILES notation.

For the assay, the target named is Rho-associated protein kinase 2 (Homo sapiens, UniProt O75116). In words: Inhibition of ROCK2 (unknown origin) using KRRRLSSLRA as substrate incubated for 75 mins in presence of ATP and DTT by Kinase-Glo luminescent assay. In general terms: In Kinase-Glo more light means more ATP remaining.
Chain of Rho-associated protein kinase 2 (O75116 whole entry): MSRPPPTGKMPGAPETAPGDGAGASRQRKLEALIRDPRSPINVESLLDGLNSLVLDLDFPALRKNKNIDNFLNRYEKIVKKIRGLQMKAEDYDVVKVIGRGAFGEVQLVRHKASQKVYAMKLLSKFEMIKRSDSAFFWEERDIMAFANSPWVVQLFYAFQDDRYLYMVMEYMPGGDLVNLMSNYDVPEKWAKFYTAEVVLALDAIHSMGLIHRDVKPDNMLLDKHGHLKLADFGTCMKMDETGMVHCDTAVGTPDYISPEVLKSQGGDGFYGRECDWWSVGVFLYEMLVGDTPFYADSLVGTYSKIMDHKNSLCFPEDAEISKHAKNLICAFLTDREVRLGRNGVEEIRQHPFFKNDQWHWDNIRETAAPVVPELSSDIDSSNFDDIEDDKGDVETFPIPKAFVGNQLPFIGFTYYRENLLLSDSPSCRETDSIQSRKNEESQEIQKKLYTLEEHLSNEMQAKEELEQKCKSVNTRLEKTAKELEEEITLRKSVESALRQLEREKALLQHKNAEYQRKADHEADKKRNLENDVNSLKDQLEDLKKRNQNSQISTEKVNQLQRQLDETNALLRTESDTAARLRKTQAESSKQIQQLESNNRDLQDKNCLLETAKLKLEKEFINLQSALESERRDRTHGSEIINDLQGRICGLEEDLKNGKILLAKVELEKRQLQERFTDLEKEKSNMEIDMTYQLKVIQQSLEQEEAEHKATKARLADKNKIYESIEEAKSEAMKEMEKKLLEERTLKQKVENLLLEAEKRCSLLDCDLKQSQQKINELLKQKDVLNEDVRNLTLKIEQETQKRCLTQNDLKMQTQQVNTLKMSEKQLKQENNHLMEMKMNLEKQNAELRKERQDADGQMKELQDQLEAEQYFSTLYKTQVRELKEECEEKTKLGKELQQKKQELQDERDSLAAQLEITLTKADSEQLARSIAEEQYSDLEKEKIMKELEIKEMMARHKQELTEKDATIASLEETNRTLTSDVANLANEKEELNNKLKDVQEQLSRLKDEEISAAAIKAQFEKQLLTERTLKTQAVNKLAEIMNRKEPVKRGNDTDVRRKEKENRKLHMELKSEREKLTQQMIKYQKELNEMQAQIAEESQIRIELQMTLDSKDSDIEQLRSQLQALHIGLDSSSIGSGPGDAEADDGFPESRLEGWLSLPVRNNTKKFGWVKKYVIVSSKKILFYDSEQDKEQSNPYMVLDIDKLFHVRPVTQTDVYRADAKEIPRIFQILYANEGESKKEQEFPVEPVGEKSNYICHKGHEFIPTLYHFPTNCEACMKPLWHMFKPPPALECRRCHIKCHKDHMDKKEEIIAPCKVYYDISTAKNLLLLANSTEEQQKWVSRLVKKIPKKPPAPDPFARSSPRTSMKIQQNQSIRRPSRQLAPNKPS

What is called IC50 is the concentration needed to halve the response being measured. Take `O=C(Nc1nc2ccncc2s1)[C@@H]1C[C@H]1c1ccc(S(=O)(=O)Nc2ccccn2)cc1`: the IC50 is 6 nM.
As for `O=C(Nc1ccc2cnccc2n1)[C@@H]1C[C@H]1c1ccc(S(=O)(=O)Nc2ccccn2)cc1`, the IC50 came to 6 nM.
